Measured values taken from patent publication US10760052B2, “Method of inhibiting tau phosphorylation” (priority 2012, dated 2020).
Where two headings read alike, the source gives them in different places.

Biological target: T1, mu opiate receptor (MOR) (Rattus norvegicus, UniProt P33535)
T1 construct: from tissue; host or cells: striatum (membrane preparation)
Assay type: biochemical

[1] = [35S]GTPγS binding to Gαo in striatal membranes, compound 0.1 μM
[2] = [35S]GTPγS binding to Gαo in striatal membranes, compound 1 μM
[3] = [35S]GTPγS binding to Gαo in striatal membranes, compound 1 μM plus 1 μM β-funaltrexamine (MOR antagonist)
[4] = 0.1 μM compound, striatal membranes, Series C-2
[5] = 1 μM compound + 1 μM β-FNA (selective MOR antagonist), Series C-2
[6] = 1 μM compound, striatal membranes, Series C-2

T1 sequence (P33535 whole entry): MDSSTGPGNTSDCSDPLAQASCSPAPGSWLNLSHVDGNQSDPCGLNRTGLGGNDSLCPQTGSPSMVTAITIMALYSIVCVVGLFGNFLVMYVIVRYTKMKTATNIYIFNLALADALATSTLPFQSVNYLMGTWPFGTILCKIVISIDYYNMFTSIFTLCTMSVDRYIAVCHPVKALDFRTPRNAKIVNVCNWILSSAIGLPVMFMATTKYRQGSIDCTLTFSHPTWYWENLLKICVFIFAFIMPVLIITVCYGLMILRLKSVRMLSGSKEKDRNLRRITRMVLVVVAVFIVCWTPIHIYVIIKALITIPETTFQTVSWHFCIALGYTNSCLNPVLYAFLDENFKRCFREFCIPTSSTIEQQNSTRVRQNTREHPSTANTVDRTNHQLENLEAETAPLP

Structure (SMILES) | % DAMGO (0.1 μM) [%] | % DAMGO (1 μM) [%] | % DAMGO + BFNA [%] | Concentration of FLNA-Binding Compound as Agonist 0.1 μM [1] [%] | Concentration of FLNA-Binding Compound as Agonist 1 μM [2] [%] | Concentration of FLNA-Binding Compound as Agonist 1 μM + BFNA [3] [%] | [35S]GTPγS binding, FLNA-Binding Compound as Agonist at 0.1 μM [4] [%] | [35S]GTPγS binding, FLNA-Binding Compound as Agonist at 1 μM + BFNA [5] [%] | [35S]GTPγS binding, FLNA-Binding Compound as Agonist at 1 μM [6] [%] | [35S]GTPγS binding, FLNA-Binding Compound as Agonist at 0.1 μM [%] | [35S]GTPγS binding, FLNA-Binding Compound as Agonist at 1 μM [%] | [35S]GTPγS binding, FLNA-Binding Compound as Agonist at 1 μM + BFNA [%] | Concentration of FLNA-Binding Compound as Agonist 0.1 μM [%] | Concentration of FLNA-Binding Compound as Agonist 1 μM [%] | Concentration of FLNA-Binding Compound as Agonist 1 μM + BFNA [%]
O=S(=O)(c1ccc(Br)cc1)N1CCC2(CC1)OCCN2S(=O)(=O)c1ccc(Br)cc1 [Compound C0025] | 122.6 | 117.5 | 182.7 | 235.7 | 320.7 | 80.2 | – | – | – | – | – | – | – | – | –
COc1c2c(cc3c1C(CC(=O)CCc1ccccc1)N(C)CC3)OCO2 (stereo not drawn) [Compound B0050] | 58.1 | 96.4 | 294.0 | 98.2 | 211.0 | 48.8 | – | – | – | – | – | – | – | – | –
CS(=O)(=O)c1ccc(S(=O)(=O)N2CCOC23CCN(CC2CC2)CC3)cc1 [Compound C0126M] | 108.5 | 119.3 | 228.4 | – | – | – | 181.8 | 108.5 | 265.3 | – | – | – | – | – | –
OC(COc1cccc(F)c1)CN1CCc2ccccc2C1 (stereo not drawn) [Compound A0055] | 53.2 | 78.4 | 102.4 | 89.8 | 195.2 | 33.5 | – | – | – | – | – | – | – | – | –
COc1ccc(S(=O)(=O)N2CCCC3(C2)OCCN3S(=O)(=O)c2ccc(OC)cc2)cc1 (stereo not drawn) [Compound C0145M] | 112.2 | 88.7 | 95.3 | 193.0 | 289.2 | 87.0 | – | – | – | – | – | – | – | – | –
COc1ccc(S(=O)(=O)N2CCOC23CCN(S(=O)(=O)c2ccc(C(C)=O)cc2)CC3)cc1 [Compound C0047] | 98.1 | 88.5 | 182.0 | 142.2 | 206.1 | 80.1 | – | – | – | – | – | – | – | – | –
CCN(CC)CC(O)COC1CC(C)CCC1C(C)C (stereo not drawn) [Compound A0032] | 115.6 | 93.4 | 180.0 | 226.9 | 257.8 | 133.0 | – | – | – | – | – | – | – | – | –
COc1ccccc1CC(=O)CC1c2c(cc3c(c2OC)OCO3)CC[N+]1(C)C (stereo not drawn) [Compound 5009] | 66.9 | 83.2 | 181.5 | 128.5 | 270.4 | 87.5 | – | – | – | – | – | – | – | – | –
CCc1ccc(S(=O)(=O)N2CCOC23CCN(CC2CC2)CC3)cc1 [Compound C0135M] | 85.3 | 124.9 | 233.6 | – | – | – | – | – | – | 161.3 | 310.1 | 113.3 | – | – | –
CC1CCC(C(C)C)C(OCC(O)CN2CCN(CCCN3CCOCC3)CC2)C1 (stereo not drawn) [Compound A0026] | 79.7 | 70.7 | 459.3 | 140.7 | 179.8 | 120.8 | – | – | – | – | – | – | – | – | –
CC1CCC(C(C)C)C(OCC(CN2CC(C)OC(C)C2)NCc2ccccc2)C1 (stereo not drawn) [Compound A0033] | 79.4 | 92.2 | 159.9 | 155.8 | 254.6 | 118.2 | – | – | – | – | – | – | – | – | –
COc1c2c(cc3c1C(CC(=O)c1ccncc1)[N+](C)(C)CC3)OCO2 (stereo not drawn) [Compound B0005] | 50.5 | 42.6 | 68.6 | 89.2 | 110.4 | 45.1 | – | – | – | – | – | – | – | – | –
O=S(=O)(c1ccc2ccccc2c1)N1CCC2(CC1)OCCN2S(=O)(=O)c1ccc2ccccc2c1 [Compound C0140M] | 85.8 | 106.5 | 211.2 | 126.1 | 215.4 | 83.0 | – | – | – | – | – | – | – | – | –
CC(=O)c1ccc(S(=O)(=O)N2CCC3(CC2)NCCS3)cc1 [Compound C0060] | 114.8 | 93.9 | 327.0 | – | – | – | 166.5 | 143.9 | 218.9 | – | – | – | – | – | –
COc1ccc(C(=O)CC2c3c(cc4c(c3OC)OCO4)CC[N+]2(C)C)cc1OC (stereo not drawn) [Compound B0026] | 88.8 | 87.4 | 55.3 | 152.0 | 233.3 | 28.8 | – | – | – | – | – | – | – | – | –
COc1c2c(cc3c1C(CC(=O)c1ccc(O)c(C)c1)[N+](C)(C)CC3)OCO2 (stereo not drawn) [Compound B0002] | 100.0 | 81.1 | 156.0 | 165.7 | 219.0 | 101.4 | – | – | – | – | – | – | – | – | –
CC1CCC(C(C)C)C(OCC(O)CN2CCC2)C1 (stereo not drawn) [Compound A0015] | 64.8 | 56.2 | 120.0 | 110.9 | 150.1 | 62.5 | – | – | – | – | – | – | – | – | –
COc1ccc(S(=O)(=O)N2CCOC23CCN(C(=O)OC(C)(C)C)CC3)cc1 [Compound C0043] | 103.8 | 110.9 | 501.8 | – | – | – | 175.4 | 83.3 | 242.6 | – | – | – | – | – | –
CCN1CCC2(CC1)OCCN2S(=O)(=O)c1ccc(C(C)=O)cc1 [Compound C0094M] | 100.2 | 119.9 | 334.2 | – | – | – | 172.5 | 115.3 | 263.5 | – | – | – | – | – | –
CC1CCC(C(C)C)C(OCC(O)CN2CCN(CCN3CCOCC3)CC2)C1 (stereo not drawn) [Compound A0011] | 158.2 | 124.9 | 177.4 | 236.3 | 287.5 | 47.0 | – | – | – | – | – | – | – | – | –
O=[N+]([O-])c1ccc(S(=O)(=O)N2CCC3(CC2)NCCO3)cc1 [Compound C0040] | 93.1 | 133.2 | 277.3 | – | – | – | 145.8 | 90.4 | 308.3 | – | – | – | – | – | –
CC1CN(CC(O)COc2cccc(F)c2)CC(C)O1 (stereo not drawn) [Compound A0049] | 118.4 | 134.2 | 144.9 | 232.3 | 370.3 | 107.1 | – | – | – | – | – | – | – | – | –
CC(=O)Nc1ccc(S(=O)(=O)N2CCC3(CC2)OCCN3S(=O)(=O)c2ccc(NC(C)=O)cc2)cc1 [Compound C0013] | 91.0 | 108.9 | 61.8 | 156.6 | 301.2 | 39.6 | – | – | – | – | – | – | – | – | –
C[C@@H](NC(=O)[C@@H](N)Cc1ccc(O)cc1)C(=O)NCC(=O)N(C)[C@@H](Cc1ccccc1)C(=O)NCCO [DAMGO, reference compound] | – | – | – | – | – | – | – | – | – | 168.5 | 266.1 | 53.2 | 168.5 | 266.1 | 53.2
Cc1cccc(S(=O)(=O)N2CCC3(CC2)OCCN3S(=O)(=O)c2cccc(C)c2)c1 [Compound C0014] | 82.0 | 59.2 | 116.1 | 144.9 | 153.5 | 76.3 | – | – | – | – | – | – | – | – | –
O=C(c1ccc([N+](=O)[O-])cc1)N1CCC2(CC1)OCCN2C(=O)c1ccc([N+](=O)[O-])cc1 [Compound C0032] | 92.8 | 87.3 | 248.2 | 145.4 | 202.0 | 80.9 | – | – | – | – | – | – | – | – | –
COc1c2c(cc3c1C(CC(=O)c1cccc(C(F)(F)F)c1)[N+](C)(C)CC3)OCO2 (stereo not drawn) [Compound B0006] | 44.8 | 47.5 | 29.0 | 77.0 | 131.3 | 18.6 | – | – | – | – | – | – | – | – | –
